The target of experiment [1] is T1, uterine OT receptors (Rattus norvegicus, UniProt P70536).
T1 construct: from tissue; host or cells: uterus of DES-treated rats, crude membranes
T1 sequence (P70536 1-388): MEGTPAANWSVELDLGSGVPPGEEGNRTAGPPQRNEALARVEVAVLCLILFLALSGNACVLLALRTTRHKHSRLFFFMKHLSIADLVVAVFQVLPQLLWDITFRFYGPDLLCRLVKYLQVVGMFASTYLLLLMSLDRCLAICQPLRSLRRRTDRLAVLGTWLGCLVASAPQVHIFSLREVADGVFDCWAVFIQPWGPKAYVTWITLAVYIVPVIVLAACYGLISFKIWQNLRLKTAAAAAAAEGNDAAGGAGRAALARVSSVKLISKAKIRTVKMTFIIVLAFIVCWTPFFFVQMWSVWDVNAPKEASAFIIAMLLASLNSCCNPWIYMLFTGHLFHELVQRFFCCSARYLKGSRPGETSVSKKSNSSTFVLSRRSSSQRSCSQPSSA
As to the kind of experiment: [^3 H]OT binding to uterine OT receptors, crude membrane preparation of uteri from DES-treated rats. The protocol: Competition studies were conducted at equilibrium (60 minutes; 22° C.) using 1 nM [^3 H]OT in the following assay buffer: 50 mM Tris-HCl, 5 mM MgCl2, and 0.1% BSA, pH 7.4.

Experiment [2] addresses T2, AVP-V1 sites (Rattus norvegicus, UniProt P30560).
T2 construct: crude membrane preparation of male rat liver (AVP-V1 sites); from tissue; host or cells: male rat liver, crude membranes
The experiment is described as follows: [^3 H]AVP binding to crude membrane preparation of male rat liver (AVP-V1 sites). On the procedure: (§1) Nonspecific binding (5-10% of the total binding) was determined using 10 μM unlabeled AVP, and the binding reaction was terminated by filtration as described above for the [^3 H]OT binding assay.

The target of experiment [3] is T3, AVP-V2 sites (Rattus norvegicus, UniProt Q00788).
T3 construct: male rat liver (AVP-V1 sites) or kidney medulla (AVP-V2 sites); from tissue; host or cells: male rat kidney medulla, crude membranes
As to the kind of experiment: [^3 H]AVP binding to crude membrane preparation of male rat kidney medulla (AVP-V2 sites). The protocol:
as §1

Where [4] appears, read: rat uterus membranes, 1 nM [^3 H]OT, read-out: Receptor Binding Results IC50 (nM) [^3 H]OT.
Where [5] appears, read: Receptor Binding Results IC50 (nM) [^3 H]-AVP-V1.
Where [6] appears, read: Receptor Binding Results IC50 (nM) [^3 H]-AVP-V2.
Where [7] appears, read: rat kidney medulla membranes, 2 nM [^3 H]AVP, read-out: Receptor Binding Results IC50 (nM) [^3 H]-AVP-V2.
[8] abbreviates: read-out: Receptor Binding Results IC50 (nM) [^3 H]-AVP-V1.
Setting [9] is: read-out: Receptor Binding Results IC50 (nM) [^3 H]-AVP-V2.
Where [10] appears, read: Receptor Binding Results IC50 (nM) [^3 H]OT.

Here are results for 16 compounds from patent publication US5225528A, “Cyclic hexapeptide oxytocin antagonists” (priority 1990, dated 1993).

A word on the IC50: it is the concentration that inhibits the measured activity by half.

Structures are written as SMILES. Where a name gives a salt, the structure may show the parent alone. Read-outs that look alike come from different tables or passages of the source. Numbered stars: 1 amine (or outer) side, 2 acyl side, 3 side chain; on linkers, the order of the positions; unused ones are H or OH. Square brackets hold non-standard residues; d marks the D form. Peptide text beside a SMILES is read from it. * marks the point of attachment. dPip(4-aza,4-Cbz) = O=C(O)[C@H]1CN(C(=O)OCc2ccccc2)CCN1; X2 = O=C(OCc1ccccc1)N1CCN([*:1])[C@H](C(=O)[*:2])C1; X4 = O=C([C@@H](Cc1cn(COCc2ccccc2)cn1)N[*:1])[*:2]; dPhe(4-NH2) = Nc1ccc(C[C@@H](N)C(=O)O)cc1; dPiz(1,6-dehydro) = O=C(O)[C@H]1CCC=NN1; d2Nal = N[C@H](Cc1ccc2ccccc2c1)C(=O)O; X3 = O=C([C@@H]1C=CCCN1[*:1])[*:2]; Pip(4-aza) = O=C(O)[C@@H]1CNCCN1; dNMeF = CN[C@H](Cc1ccccc1)C(=O)O; hPhe = N[C@@H](CCc1ccccc1)C(=O)O; Chg = N[C@H](C(=O)O)C1CCCCC1; Pip = O=C(O)[C@@H]1CCCCN1; dPip = O=C(O)[C@H]1CCCCN1; Orn = NCCC[C@H](N)C(=O)O; Me2Gly = CN(C)CC(=O)*; OtBu = CC(C)(C)O*

T3 sequence (Q00788 whole entry): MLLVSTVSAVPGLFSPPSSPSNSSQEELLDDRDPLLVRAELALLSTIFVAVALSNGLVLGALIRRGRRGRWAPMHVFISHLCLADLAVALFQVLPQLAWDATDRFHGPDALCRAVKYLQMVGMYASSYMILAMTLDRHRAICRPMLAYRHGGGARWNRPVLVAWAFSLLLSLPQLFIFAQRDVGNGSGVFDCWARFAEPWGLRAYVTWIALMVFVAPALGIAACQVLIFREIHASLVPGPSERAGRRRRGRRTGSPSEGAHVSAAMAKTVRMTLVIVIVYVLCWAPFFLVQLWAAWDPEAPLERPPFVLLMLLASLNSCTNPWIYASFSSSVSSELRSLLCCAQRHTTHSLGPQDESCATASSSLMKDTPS
T2 sequence (P30560 whole entry): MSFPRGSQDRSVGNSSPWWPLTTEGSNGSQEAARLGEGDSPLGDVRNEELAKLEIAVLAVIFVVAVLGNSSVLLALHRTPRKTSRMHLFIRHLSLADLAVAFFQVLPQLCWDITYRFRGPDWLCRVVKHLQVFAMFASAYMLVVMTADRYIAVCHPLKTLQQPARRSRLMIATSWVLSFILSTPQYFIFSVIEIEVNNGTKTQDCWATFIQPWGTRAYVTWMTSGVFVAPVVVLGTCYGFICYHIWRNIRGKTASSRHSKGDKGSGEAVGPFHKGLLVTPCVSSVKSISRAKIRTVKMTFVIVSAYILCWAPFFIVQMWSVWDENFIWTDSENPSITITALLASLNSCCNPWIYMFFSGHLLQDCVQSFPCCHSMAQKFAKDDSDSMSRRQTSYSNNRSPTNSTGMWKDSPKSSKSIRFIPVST

Take `CC[C@H](C)[C@@H]1NC(=O)[C@@H](Cc2ccccc2)NC(=O)[C@@H]2CCCN2C(=O)[C@@H](Cc2c[nH]cn2)NC(=O)[C@@H]2CN(C(=O)OCc3ccccc3)CCN2C(=O)[C@H]2CCCCN2C1=O` [Example 81, c-[D-Phenylalanyl-L-isoleucinyl-D-pipecolyl-L-piperazin-2yl(4Cbz)-D-histidinyl-L-prolyl]] (cyclo(I[dPip][X2][dH]P[dF])): the concentration for half-maximal inhibition (IC50) in experiment [1] (setting [4]) is 77 nM; in experiment [2] (setting [5]), > 1000 nM; in experiment [3] (setting [6]) it was > 1000 nM.

As for `CN1C(=O)[C@@H]2CCCCN2C(=O)[C@H]2CCCCN2C(=O)[C@H](Cc2ccccc2)NC(=O)[C@@H](Cc2c[nH]c3ccccc23)NC(=O)[C@@H]2CCCN2C(=O)[C@H]1Cc1ccccc1` [Example 31, Cyclo[D-Tryptophanyl-L-phenylalanyl-D-pipecolyl-L-pipecolyl-D-(N^α -methyl)phenylalanyl-L-prolyl]] (cyclo(F[dPip][Pip][dNMeF]P[dW])), the values for the IC50 in experiment [1] (setting [4]), in experiment [2] (setting [5]) and in experiment [3] (setting [6]) were 100 nM, > 10000 nM and > 1000 nM, respectively.

Consider `CC[C@H](C)[C@@H]1NC(=O)[C@@H](Cc2ccccc2)NC(=O)[C@@H]2CCCN2C(=O)[C@@H](Cc2ccccc2)N(C)C(=O)[C@H](CC(N)=O)NC(=O)[C@H]2CCCCN2C1=O` [Example 118, c-[D-Phenylalanyl-L-isoleucyl-D-pipecolyl-L-asparagyl-N-methyl-D-phenylalanyl-L-prolyl]] (cyclo(I[dPip]N[dNMeF]P[dF])), for which the IC50 in experiment [1] (setting [4]) was 345 nM; in experiment [2] (setting [5]), > 10000 nM; in experiment [3] (setting [7]), 10000 nM.

`CC[C@H](C)[C@@H]1NC(=O)[C@@H](Cc2c[nH]c3ccccc23)NC(=O)[C@@H]2CCCN2C(=O)[C@@H](Cc2cn(COCc3ccccc3)cn2)NC(=O)[C@@H]2CNCCN2C(=O)[C@H]2CCCCN2C1=O` [Example 177, c-[D-Tryptophanyl-L-isoleucinyl-D-pipecolyl-L-piperazin-2-yl-D-histidinyl(BOM)-L-prolyl]] (cyclo([dW]I[dPip][Pip(4-aza)][X4]P)): the figures for the IC50 in experiment [1] (setting [4]), in experiment [2] (setting [8]) and in experiment [3] (setting [9]) were 76 nM, 16000 nM and 12000 nM, respectively.

As for `CC[C@H](C)[C@@H]1NC(=O)[C@@H](Cc2ccccc2)NC(=O)[C@@H]2CCCCN2C(=O)[C@@H](Cc2ccccc2)N(C)C(=O)[C@@H]2CCCCN2C(=O)[C@H]2CCCCN2C1=O` [Example 108, c-[D-phenylalanyl-L-isoleucyl-D-pipecolyl-L-pipecolyl-N-methyl-D-phenylalanyl-L-pipecolyl]] (cyclo(I[dPip][Pip][dNMeF][Pip][dF])), the results for the IC50 in experiment [1] (setting [10]), in experiment [2] (setting [5]) and in experiment [3] (setting [7]) were 655 nM, 10000 nM and 10000 nM, respectively.

As for `O=C1N[C@@H](C2CCCCC2)C(=O)N2CCC[C@@H]2C(=O)N2CCC[C@H]2C(=O)N[C@H](Cc2ccccc2)C(=O)N2CCC[C@H]2C(=O)N[C@@H]1Cc1ccccc1` [Example 67, c-[D-Phenylalanyl-L-cyclohexylglycyl-D-prolyl-L-prolyl-D-phenylalanyl-L-prolyl]] (cyclo([dF]P[dF][Chg][dP]P)), the half-maximal inhibitory concentration (IC50) was 10000 nM in experiment [1] (setting [4]), > 10000 nM in experiment [2] (setting [5]) and > 10000 nM in experiment [3] (setting [7]).

For the compound `CC[C@H](C)[C@@H]1NC(=O)[C@@H](Cc2ccccc2)NC(=O)[C@@H]2CCCN2C(=O)[C@@H](Cc2ccccc2)NC(=O)[C@H](CC(N)=O)NC(=O)[C@@H](CCC(N)=O)NC1=O` [Example 102] (cyclo([dF]I[dQ]N[dF]P)), the IC50 in experiment [1] (setting [4]), in experiment [2] (setting [5]) and in experiment [3] (setting [7]) was > 10000 nM in each case.

With `CN1C(=O)[C@@H]2CCCCN2C(=O)[C@H]2CCCCN2C(=O)[C@H](CCc2ccccc2)NC(=O)[C@@H](Cc2c[nH]c3ccccc23)NC(=O)[C@@H]2CCCN2C(=O)[C@H]1Cc1ccccc1` [Example 32, Cyclo[D-trytophanyl-L-homophenylalanyl-D-pipecolyl-L-pipecolyl-D-(N^α methyl)phenylalanyl-L-prolyl]] (cyclo(P[dW][hPhe][dPip][Pip][dNMeF])), the IC50 in experiment [1] (setting [4]) was > 1000 nM; in experiment [2] (setting [5]), > 10000 nM; in experiment [3] (setting [7]), > 10000 nM.

For `CC[C@H](C)[C@@H]1NC(=O)[C@@H](Cc2ccccc2)NC(=O)[C@@H]2CCCN2C(=O)[C@@H](Cc2ccccc2)N(C)C(=O)[C@@H]2CN(C(=O)OCc3ccccc3)CCN2C(=O)[C@H]2CN(C(=O)OCc3ccccc3)CCN2C1=O` [Example 86, c-[D-Phenylalanyl-L-isoleucinyl-D-piperazin-2-yl(4-Cbz)-L-piperazin-2-yl(4-Cbz)-D-(N^α -methyl)phenylalanyl-L-prolyl]] (cyclo(I[dPip(4-aza,4-Cbz)][X2][dNMeF]P[dF])), the inhibition at 1 µM in experiment [1] (1 h, @ 1,000 (nM), read-out: [^3 H]OT: percent inhibition of radioligand at the given concentration) was 58%. Moreover, the IC50 in experiment [2] (setting [5]) and in experiment [3] (setting [7]) was > 10000 nM in each case.

As for `CC[C@H](C)[C@@H]1NC(=O)[C@@H](Cc2ccc3ccccc3c2)NC(=O)[C@@H]2CCCN2C(=O)[C@@H](Cc2c[nH]cn2)NC(=O)[C@@H]2CNCCN2C(=O)[C@H]2CCCCN2C1=O` [Example 159, c-[D-2-Naphthylalanyl-L-isoleucyl-D-pipecolyl-L-piperazin-2-yl-D-histidyl-L-prolyl]] (cyclo(I[dPip][Pip(4-aza)][dH]P[d2Nal])), the IC50 in experiment [1] (setting [4]) came to 1.8 nM; in experiment [2] (setting [8]), 4650 nM; in experiment [3] (setting [9]) it was 690 nM.

For the compound `CC[C@H](C)[C@@H]1NC(=O)[C@@H](Cc2ccccc2)NC(=O)[C@@H]2CCCN2C(=O)[C@@H](Cc2ccc(NC(=O)CN(C)C)cc2)NC(=O)[C@@H]2CCCCN2C(=O)[C@H]2CCCCN2C1=O` [Example 49, Cyclo[D-phenylalanyl-L-isoleucyl-D-pipecolyl-L-pipecolyl-D-([N,N-dimethylglycyl]p-amino)phenylalanyl-L-prolyl]] (cyclo(I[dPip][Pip][dPhe(4-NH2)](Me2Gly)P[dF])), the results for the IC50 in experiment [1] (setting [4]), in experiment [2] (setting [5]) and in experiment [3] (setting [7]) were 320 nM, 10000 nM and 10000 nM, respectively.

Regarding `CC[C@H](C)[C@@H]1NC(=O)[C@@H](Cc2ccc3ccccc3c2)NC(=O)[C@@H]2CCCN2C(=O)[C@@H](Cc2ccccc2)N(C)C(=O)[C@@H]2CN(C(=O)OCc3ccccc3)CCN2C(=O)[C@H]2CCCCN2C1=O` [Example 169, c-[D-2-Naphthylalanyl-L-isoleucinyl-D-pipecolyl-L-piperazin-2-yl(4-Cbz)-D-(Nα-methyl)-phenylalanyl-L-prolyl]] (cyclo(I[dPip][X2][dNMeF]P[d2Nal])), in experiment [1] (1 h, @ 10 (nM), read-out: [^3 H]OT: percent inhibition of radioligand at the given concentration), the inhibition at 0.01 µM was 74%. Also, the IC50 was > 10000 nM in experiment [2] (setting [5]) and 10000 nM in experiment [3] (setting [7]).

Take `CC[C@H](C)[C@@H]1NC(=O)[C@@H](Cc2ccccc2)NC(=O)[C@@H]2CCCN2C(=O)[C@@H](Cc2ccccc2)N(C)C(=O)[C@@H]2C=CCCN2C(=O)[C@H]2CCCCN2C1=O` [Example 23, Cyclo[D-phenylanyl-L-isoleucyl-D-pipecolyl-L-(3,4-dehydro)-pipecolyl-D-(N^α methyl)phenylalanyl-L-prolyl]] (cyclo(I[dPip][X3][dNMeF]P[dF])): the 50% inhibitory concentration (IC50) in experiment [1] (setting [4]) was 625 nM; in experiment [2] (setting [5]), > 10000 nM; in experiment [3] (setting [7]) it was > 10000 nM.

Turning to `CC[C@H](C)[C@@H]1NC(=O)[C@@H](Cc2ccccc2)NC(=O)[C@@H]2CCCN2C(=O)[C@@H](Cc2ccccc2)N(C)C(=O)[C@H](CC(=O)OC(C)(C)C)NC(=O)[C@H]2CCCCN2C1=O` [Example 115, c-[D-Phenylalanyl-L-isoleucyl-D-pipecolyl(O-tert-butyl)-L-aspartyl-N-methyl-D-phenylalanyl-L-prolyl]] (cyclo(D(OtBu)[dNMeF]P[dF]I[dPip])), the IC50 in experiment [1] (setting [4]) is 460 nM; in experiment [2] (setting [5]) it was > 10000 nM; in experiment [3] (setting [7]), 10000 nM.

In the case of `CC[C@H](C)[C@@H]1NC(=O)[C@@H](Cc2c[nH]c3ccccc23)NC(=O)[C@@H]2CCCN2C(=O)[C@@H](Cc2ccccc2)N(C)C(=O)[C@@H]2CNCCN2C(=O)[C@H]2CCCCN2C1=O` [Example 92, c-[D-Tryptophanyl-L-isoleucinyl-D-pipecolyl-L-piperazin-2-yl-D-(N^α -methyl)phenylalanyl-L-prolyl]] (cyclo(I[dPip][Pip(4-aza)][dNMeF]P[dW])), the IC50 in experiment [1] (setting [10]) was 7.7 nM; in experiment [2] (setting [5]), > 10000 nM; in experiment [3] (setting [9]), 750 nM.

`CC[C@H](C)[C@@H]1NC(=O)[C@@H](Cc2ccccc2)NC(=O)[C@@H]2CCCN2C(=O)[C@@H](Cc2ccccc2)N(C)C(=O)[C@H](CCCN)NC(=O)[C@H]2CCC=NN2C1=O` [Example 125, c-[D-Phenylalanyl-L-isoleucyl-D-Δ-piperazyl-L-ornithyl-D-(N-methyl)phenylalanyl-L-prolyl] acetate salt] (cyclo(I[dPiz(1,6-dehydro)][Orn][dNMeF]P[dF])): the IC50 in experiment [1] (setting [4]) came to 16 nM; in experiment [2] (setting [8]) it was 810 nM; in experiment [3] (setting [7]), 1600 nM.
